Results as given in patent publication US11414416B1, “Compounds and uses thereof” (Foghorn Therapeutics Inc., priority 2019, dated 2022).

What follows are compounds tested against Nanoluciferase-BRD9 fusion protein (Homo sapiens (Human), UniProt Q9H8M2) (assay: SYO1 BRD9 NanoLuc degradation assay). Settings: Table 5B; SYO-1 cells expressing 3×FLAG-NLuc-BRD9, 6 hours; read-out: SYO1 BRD9-NanoLuc degradation IC50.
Type: cell-based
Method in brief: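 Degradation was read as loss of nanoluciferase signal (Nano-Glo) after 6 h compound exposure in a stable SYO-1 line carrying 3×FLAG-NLuc-BRD9 (8000 cells/well). Normalised between DMSO (high) and a 1 μM known BRD9 degrader (low).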

Chain of Nanoluciferase-BRD9 fusion protein (Q9H8M2 whole entry, the tested form may be a part): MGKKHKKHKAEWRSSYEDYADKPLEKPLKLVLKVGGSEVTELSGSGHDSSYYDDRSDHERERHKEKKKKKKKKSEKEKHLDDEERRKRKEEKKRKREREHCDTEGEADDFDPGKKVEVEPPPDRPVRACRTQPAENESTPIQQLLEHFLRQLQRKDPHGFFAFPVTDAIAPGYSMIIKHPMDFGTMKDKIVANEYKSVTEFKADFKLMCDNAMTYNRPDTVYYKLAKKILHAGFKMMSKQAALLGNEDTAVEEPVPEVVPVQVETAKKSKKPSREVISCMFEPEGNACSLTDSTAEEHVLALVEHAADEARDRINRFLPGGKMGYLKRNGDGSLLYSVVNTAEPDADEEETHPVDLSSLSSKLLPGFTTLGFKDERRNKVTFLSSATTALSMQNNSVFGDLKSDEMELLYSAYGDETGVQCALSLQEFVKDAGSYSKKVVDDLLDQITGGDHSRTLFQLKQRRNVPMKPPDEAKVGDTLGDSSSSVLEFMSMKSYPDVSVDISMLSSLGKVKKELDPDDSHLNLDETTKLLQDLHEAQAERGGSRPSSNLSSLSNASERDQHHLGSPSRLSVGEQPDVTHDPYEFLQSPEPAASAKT

DC50 [µM]	SMILES
< 0.01	COc1cc(-c2cn(C)c(=O)c3cnccc23)cc(OC)c1CN1CCC2(C1)CN(CCCC#Cc1ccc3c(c1)C(=O)N(C1CCC(=O)NC1=O)C3=O)C2 (stereo not shown) [Compound D238]
< 0.01	COc1cc(-c2cn(C)c(=O)c3cnccc23)cc(OC)c1CN1CC2(CCN(C(=O)C#Cc3ccc4c(c3)C(=O)N(C3CCC(=O)NC3=O)C4=O)C2)C1 (stereo not shown) [Compound D239]
< 0.01	COc1cc(-c2cn(C)c(=O)c3cnccc23)cc(OC)c1CN1CCC2(CC1)CCN(C(=O)C#Cc1ccc3c(c1)C(=O)N(C1CCC(=O)NC1=O)C3=O)C2 (stereo not shown) [Compound D240]
< 0.01	COc1cc(-c2cn(C)c(=O)c3cnccc23)cc(OC)c1CN1CCC2(C1)CN(C(=O)C#Cc1ccc3c(c1)C(=O)N(C1CCC(=O)NC1=O)C3=O)C2 (stereo not shown) [Compound D241]
< 0.01	COc1cc(-c2cn(C)c(=O)c3cnccc23)cc(OC)c1CN1CCC2C(C1)CN2C(=O)C#Cc1ccc2c(c1)C(=O)N(C1CCC(=O)NC1=O)C2=O (stereo not shown) [Compound D242]
< 0.01	COc1cc(-c2cn(C)c(=O)c3cnccc23)cc(OC)c1CN1CCC2C(C1)CN2C(=O)CCC#Cc1ccc2c(c1)C(=O)N(C1CCC(=O)NC1=O)C2=O (stereo not shown) [Compound D243]
< 0.01	COc1cc(-c2cn(C)c(=O)c3cnccc23)cc(OC)c1CN(C)CCCCN1CCCC2(CC(Oc3ccc4c(c3)C(=O)N([C@@H]3CCC(=O)NC3=O)C4=O)C2)C1 (stereo partly shown) [Compound D244]
0.01 to 0.1	COc1cc(-c2cn(C)c(=O)c3cnccc23)cc(OC)c1CN(C)CCCCNC1CCC12CN(c1ccc3c(c1)C(=O)N(C1CCC(=O)NC1=O)C3=O)C2 (stereo not shown) [Compound D245]
< 0.01	COc1cc(-c2cn(C)c(=O)c3cnccc23)cc(OC)c1CN(C)CCCCN1CCCC2(CC(Oc3ccc4c(c3)C(=O)N([C@H]3CCC(=O)NC3=O)C4=O)C2)C1 (stereo partly shown) [Compound D246]
< 0.01	COc1cc(-c2cn(C)c(=O)c3cnccc23)cc(OC)c1CN(C)CCCCNC1CC2(CCN(c3ccc4c(c3)C(=O)N(C3CCC(=O)NC3=O)C4=O)CC2)C1 (stereo not shown) [Compound D247]
0.01 to 0.1	COc1cc(-c2cn(C)c(=O)c3cnccc23)cc(OC)c1CN(C)CCCCN1CC(Oc2ccc3c(c2)C(=O)N(C2CCC(=O)NC2=O)C3=O)C1 (stereo not shown) [Compound D249]
< 0.01	COc1cc(-c2cn(C)c(=O)c3cnccc23)cc(OC)c1CN(C)CCCCNC1CC2(C1)CN(c1ccc3c(c1)C(=O)N(C1CCC(=O)NC1=O)C3=O)C2 (stereo not shown) [Compound D250]
< 0.01	COc1cc(-c2cn(C)c(=O)c3cnccc23)cc(OC)c1CN(C)CCCCN1CC2(CC(Oc3ccc4c(c3)C(=O)N(C3CCC(=O)NC3=O)C4=O)C2)C1 (stereo not shown) [Compound D251]
< 0.01	COc1cc(-c2cn(C)c(=O)c3cnccc23)cc(OC)c1CN(C)CCCCNC1CC12CCN(c1ccc3c(c1)C(=O)N(C1CCC(=O)NC1=O)C3=O)C2 (stereo not shown) [Compound D252]
< 0.01	COc1cc(-c2cn(C)c(=O)c3cnccc23)cc(OC)c1CN(C)CCCCN1CCC2(CC(Oc3ccc4c(c3)C(=O)N(C3CCC(=O)NC3=O)C4=O)C2)C1 (stereo not shown) [Compound D253]
< 0.01	COc1cc(-c2cn(C)c(=O)c3cnccc23)cc(OC)c1CN(C)CCCCN1CC2(C1)CN(c1ccc3c(c1)C(=O)N(C1CCC(=O)NC1=O)C3=O)C2 (stereo not shown) [Compound D254]
< 0.01	COc1cc(-c2cn(C)c(=O)c3cnccc23)cc(OC)c1CN(C)C(=O)CCCCNC1CCC12CN(c1ccc3c(c1)C(=O)N(C1CCC(=O)NC1=O)C3=O)C2 (stereo not shown) [Compound D255]
< 0.01	COc1cc(-c2cn(C)c(=O)c3cnccc23)cc(OC)c1CN(C)C(=O)CCCCNC1CC2(CCN(c3ccc4c(c3)C(=O)N(C3CCC(=O)NC3=O)C4=O)CC2)C1 (stereo not shown) [Compound D256]
< 0.01	COc1cc(-c2cn(C)c(=O)c3cnccc23)cc(OC)c1CN(C)CCCCNC1CC2(C1)CC(Oc1ccc3c(c1)C(=O)N(C1CCC(=O)NC1=O)C3=O)C2 (stereo not shown) [Compound D257]
< 0.01	COc1cc(-c2cn(C)c(=O)c3cnccc23)cc(OC)c1CN(C)C(=O)CCCCNC1CC12CCN(c1ccc3c(c1)C(=O)N(C1CCC(=O)NC1=O)C3=O)C2 (stereo not shown) [Compound D258]
< 0.01	COc1cc(-c2cn(C)c(=O)c3cnccc23)cc(OC)c1CN(C)CCCCN1CC2(CCC(Oc3ccc4c(c3)C(=O)N(C3CCC(=O)NC3=O)C4=O)C2)C1 (stereo not shown) [Compound D259]
< 0.01	COc1cc(-c2cn(C)c(=O)c3cnccc23)cc(OC)c1CN(C)C(=O)CCCCNC1CC2(C1)CC(Oc1ccc3c(c1)C(=O)N(C1CCC(=O)NC1=O)C3=O)C2 (stereo not shown) [Compound D260]
< 0.01	COc1cc(-c2cn(C)c(=O)c3cnccc23)cc(OC)c1CN(C)C(=O)CCCCN1CCCC2(CC(Oc3ccc4c(c3)C(=O)N([C@@H]3CCC(=O)NC3=O)C4=O)C2)C1 (stereo partly shown) [Compound D261]
< 0.01	COc1cc(-c2cn(C)c(=O)c3cnccc23)cc(OC)c1CN(C)C(=O)CCCCN1CCCC2(CC(Oc3ccc4c(c3)C(=O)N([C@H]3CCC(=O)NC3=O)C4=O)C2)C1 (stereo partly shown) [Compound D262]
< 0.01	COc1cc(-c2cn(C)c(=O)c3cnccc23)cc(OC)c1CN(C)C(=O)CCCCN1CCC2(CC(Oc3ccc4c(c3)C(=O)N(C3CCC(=O)NC3=O)C4=O)C2)C1 (stereo not shown) [Compound D263]

DC50 [µM]	SMILES
0.01 to 0.1	COc1cc(-c2cn(C)c(=O)c3cnccc23)cc(OC)c1CN1CC(CC(=O)N2CCCC3(CC(Oc4ccc5c(c4)C(=O)N([C@@H]4CCC(=O)NC4=O)C5=O)C3)C2)C1 (stereo partly shown) [Compound D264]
0.1 to 1	COc1cc(-c2cn(C)c(=O)c3cnccc23)cc(OC)c1CN1CC(CC(=O)N2CCCC3(CC(Oc4ccc5c(c4)C(=O)N([C@H]4CCC(=O)NC4=O)C5=O)C3)C2)C1 (stereo partly shown) [Compound D265]
0.01 to 0.1	COc1cc(-c2cn(C)c(=O)c3cnccc23)cc(OC)c1CN1CC(CC(=O)N2CCC3(CC(Oc4ccc5c(c4)C(=O)N([C@@H]4CCC(=O)NC4=O)C5=O)C3)C2)C1 (stereo partly shown) [Compound D266]
0.01 to 0.1	COc1cc(-c2cn(C)c(=O)c3cnccc23)cc(OC)c1CN1CC(CC(=O)N2CCC3(CC(Oc4ccc5c(c4)C(=O)N([C@H]4CCC(=O)NC4=O)C5=O)C3)C2)C1 (stereo partly shown) [Compound D267]
< 0.01	COc1cc(-c2cn(C)c(=O)c3cnccc23)cc(OC)c1CN1CCC2(C1)CN(CC#Cc1ccc3c(c1)C(=O)N(C1CCC(=O)NC1=O)C3=O)C2 (stereo not shown) [Compound D268]
< 0.01	COc1cc(-c2cn(C)c(=O)c3cnccc23)cc(OC)c1CN1CCC2(C1)CN(C(=O)CCC#Cc1ccc3c(c1)C(=O)N(C1CCC(=O)NC1=O)C3=O)C2 (stereo not shown) [Compound D269]
0.01 to 0.1	COc1cc(-c2cn(C)c(=O)c3cnccc23)cc(OC)c1Cn1cc(CN2CC(Oc3ccc4c(c3)C(=O)N(C3CCC(=O)NC3=O)C4=O)C2)nn1 (stereo not shown) [Compound D270]
< 0.01	COc1cc(-c2cn(C)c(=O)c3cnccc23)cc(OC)c1Cn1cc(COC2CN(c3ccc4c(c3)C(=O)N(C3CCC(=O)NC3=O)C4=O)C2)nn1 (stereo not shown) [Compound D271]
< 0.01	COc1cc(-c2cn(C)c(=O)c3cnccc23)cc(OC)c1Cn1cc(COC2CCN(c3ccc4c(c3)C(=O)N(C3CCC(=O)NC3=O)C4=O)CC2)nn1 (stereo not shown) [Compound D272]
< 0.01	COc1cc(-c2cn(C)c(=O)c3cnccc23)cc(OC)c1CN(C)CCn1cc(CCOc2ccc3c(c2)C(=O)N(C2CCC(=O)NC2=O)C3=O)nn1 (stereo not shown) [Compound D274]
< 0.01	COc1cc(-c2cn(C)c(=O)c3cnccc23)cc(OC)c1CN(C)CCn1cc(COCCOc2ccc3c(c2)C(=O)N(C2CCC(=O)NC2=O)C3=O)nn1 (stereo not shown) [Compound D275]
0.01 to 0.1	COc1cc(-c2cn(C)c(=O)c3cnccc23)cc(OC)c1CN(C)CCn1cc(CN2CC(Oc3ccc4c(c3)C(=O)N(C3CCC(=O)NC3=O)C4=O)C2)nn1 (stereo not shown) [Compound D276]
< 0.01	COc1cc(-c2cn(C)c(=O)c3cnccc23)cc(OC)c1CN(C)CCn1cc(COC2CN(c3ccc4c(c3)C(=O)N(C3CCC(=O)NC3=O)C4=O)C2)nn1 (stereo not shown) [Compound D277]
0.01 to 0.1	COc1cc(-c2cn(C)c(=O)c3cnccc23)cc(OC)c1CN(C)CCn1cc(COC2CCN(c3ccc4c(c3)C(=O)N(C3CCC(=O)NC3=O)C4=O)CC2)nn1 (stereo not shown) [Compound D278]
< 0.01	COc1cc(-c2cn(C)c(=O)c3cnccc23)cc(OC)c1CN1CCC(n2cc(CCOc3ccc4c(c3)C(=O)N(C3CCC(=O)NC3=O)C4=O)nn2)CC1 (stereo not shown) [Compound D279]
< 0.01	COc1cc(-c2cn(C)c(=O)c3cnccc23)cc(OC)c1CN1CCC(n2cc(CN3CC(Oc4ccc5c(c4)C(=O)N(C4CCC(=O)NC4=O)C5=O)C3)nn2)CC1 (stereo not shown) [Compound D280]
0.01 to 0.1	COc1cc(-c2cn(C)c(=O)c3cnccc23)cc(OC)c1CN1CCC(n2cc(COC3CCN(c4ccc5c(c4)C(=O)N(C4CCC(=O)NC4=O)C5=O)CC3)nn2)CC1 (stereo not shown) [Compound D281]
0.1 to 1	COc1cc(-c2cn(C)c(=O)c3cnccc23)cc(OC)c1CN(C)CCCn1cc(COc2ccc3c(c2)C(=O)N(C2CCC(=O)NC2=O)C3=O)nn1 (stereo not shown) [Compound D282]
0.1 to 1	COc1cc(-c2cn(C)c(=O)c3cnccc23)cc(OC)c1CN(C)CCCn1cc(CCOc2ccc3c(c2)C(=O)N(C2CCC(=O)NC2=O)C3=O)nn1 (stereo not shown) [Compound D283]
0.01 to 0.1	COc1cc(-c2cn(C)c(=O)c3cnccc23)cc(OC)c1CN(C)CCCn1cc(COCCOc2ccc3c(c2)C(=O)N(C2CCC(=O)NC2=O)C3=O)nn1 (stereo not shown) [Compound D284]
0.1 to 1	COc1cc(-c2cn(C)c(=O)c3cnccc23)cc(OC)c1CN(C)CCCn1cc(CN2CC(Oc3ccc4c(c3)C(=O)N(C3CCC(=O)NC3=O)C4=O)C2)nn1 (stereo not shown) [Compound D285]
0.01 to 0.1	COc1cc(-c2cn(C)c(=O)c3cnccc23)cc(OC)c1CN(C)CCCn1cc(COC2CN(c3ccc4c(c3)C(=O)N(C3CCC(=O)NC3=O)C4=O)C2)nn1 (stereo not shown) [Compound D286]
< 0.01	COc1cc(-c2cn(C)c(=O)c3cnccc23)cc(OC)c1CN(C)CCCn1cc(COC2CCN(c3ccc4c(c3)C(=O)N(C3CCC(=O)NC3=O)C4=O)CC2)nn1 (stereo not shown) [Compound D287]
< 0.01	COc1cc(-c2cn(C)c(=O)c3cnccc23)cc(OC)c1CN(C)CCOCCn1cc(COc2ccc3c(c2)C(=O)N(C2CCC(=O)NC2=O)C3=O)nn1 (stereo not shown) [Compound D288]
